This note sets out measurements from paper PMC6491884, “Synthesis and Biological Evaluation of 4β-N-Acetylamino Substituted Podophyllotoxin Derivatives as Novel Anticancer Agents” (Frontiers in Chemistry, 2019).

The test system of data set [1] is EC9706 (human esophageal squamous cell carcinoma). The experiment in a line: MTT growth inhibition assay, EC9706. The note with it: EC9706, 48 h, read-out: IC50 (μM) EC9706. It is filed as cell-based. The protocol: (§1) Target compounds 12a–t were evaluated for in vitro cytotoxicity against four human tumor cell lines, including H460 (non-small cell lung carcinoma), HeLA (human cervical carcinoma), EC9706 (human esophageal squamous cell carcinoma), and T24 (human bladder carcinoma), using HaCaT (human immortalized epidermal cells) as a human non-malignant cell line. Etoposide (3) was included as a positive control. The screening procedure was based on the 3-(4, 5-dimethylthiazol-2-yl)-2, 5-diphenyltetrazoliun bromide (MTT) growth inhibition assay with triplicate experiments, and the results are summarized in Table 1.
(§2) The four human cancer cell lines and a normal human epidermal cell line of the screening panel, including H460 (human non-small cell lung carcinoma), HeLA (human cervical carcinoma), EC9706 (human esophageal squamous cell carcinoma), T24 (human bladder carcinoma), and HaCaT (human immortalized epidermal cells), were purchased from American Type Culture Collection (ATCC, Manassas, VA, U.S.A.). H460, EC9706, and T24 were maintained in RPMI 1640 medium containing 10% Fetal Bovine Serum, 100 units/ml penicillin, 100 μg/ml streptomycin under humidified incubator with 5% CO2 atmosphere at 37°C. HeLA and HaCaT were maintained in Dulbecco′s […] (DMEM) supplemented with 10% Fetal Bovine Serum 100 units/ml penicillin, 100 μg/ml streptomycin in a humidified incubator and 5% CO2 atmosphere at 37°C. Logarithmically growing cells were used for the following experiments.
(§3) The cytotoxicity of the synthesized compounds 12a–t against a panel of human cell lines was determined by the 3-(4,5-dimethylthiazol-2-yl)-2,5-diphenyltetrazoliun bromide (MTT) growth inhibition assay. The five human cell lines were, respectively, plated in 96-well-culture plates at the density of 1 × 10^5 cells per well and incubated for 24 h. Cells were exposed to different concentrations of synthetic podophyllotoxin derivatives for 48 h. MTT was added with a dose of 5 mg/mL in phosphate-buffered saline. After incubation for 4 h at 37°C, the purple formazan crystals were dissolved with […] dimethyl sulfoxide and the absorbance was measured at 570 nm in an ELISA reader. Antiproliferative activity was expressed using the IC50 value defined as the concentration of synthetic podophyllotoxin derivatives inhibiting cell proliferation by 50%. The cell viability ratio was calculated by the following formula: cell viability ratio (%) = OD treated /OD control × 100% (Ma et al., [2014]).
Background: Tetrazolium dyes change colour on reduction, which living cells bring about.

For data set [2], the system named is HeLA (human cervical carcinoma). The experiment in a line: MTT growth inhibition assay, HeLA. The note with it: Homo sapiens, 48 h, read-out: IC50 (μM) HeLA, MTT, 48 h, n = 3. It is filed as cell-based. As for the experimental part: as §1, §2, §3
Data set [3] deals with T24 (human bladder carcinoma). In words: MTT growth inhibition assay, T24. The note with it: T24, 48 h, read-out: IC50 (μM) T24, MTT, 48 h, n = 3. It is filed as cell-based. As for the experimental part: as §1, §2, §3
For data set [4], the system named is H460 (human non-small cell lung carcinoma). In words: MTT growth inhibition assay, H460. It is filed as cell-based. The note with it: NCI-H460, 48 h, read-out: IC50 (μM) H460. As for the experimental part: as §1, §2, §3
Data set [5] relates to HaCaT (human immortalized epidermal cells). In words: MTT growth inhibition assay, HaCaT normal cells. It is filed as cell-based. The note with it: 48 h, read-out: IC50 (μM) HaCaT, MTT, 48 h, n = 3, normal cell line. As for the experimental part:
as §1, §2, §3

As to `COc1cc([C@@H]2c3cc4c(cc3[C@@H](NC(=O)CN3CCCC3)[C@H]3COC(=O)[C@H]23)OCO4)cc(OC)c1O` [Compound 12a], the melting point lay within 113 to 116 °C. In addition, in data set [1], the IC50 was over 50 µM. The half-maximal inhibitory concentration (IC50) in data set [2] worked out at 12.7 ± 1.38 µM. The half-maximal inhibitory concentration (IC50) in data set [3] is over 50 µM. Besides, the IC50 in data set [4] is 9.61 ± 0.22 µM. In addition, in data set [5], the IC50 is 18.2 ± 1.28 µM.

The molecule `COc1cc([C@@H]2c3cc4c(cc3[C@@H](NC(=O)CN3CCCCC3)[C@H]3COC(=O)[C@H]23)OCO4)cc(OC)c1O` [Compound 12b] came in with a melting point of 107 to 110 °C. The IC50 in data set [1] is over 50 µM. The 50% inhibitory concentration (IC50) in data set [2] worked out at 5.72 ± 0.74 µM. In addition, the IC50 in data set [3] was over 50 µM. Moreover, in data set [4], the IC50 turned out to be 5.91 ± 0.65 µM. The IC50 in data set [5] was 5.17 ± 0.36 µM.

In the case of `COc1cc([C@@H]2c3cc4c(cc3[C@@H](NC(=O)CN3CCCCC3)[C@H]3COC(=O)[C@H]23)OCO4)cc(OC)c1OC` [Compound 12c], the melting point is 229 to 231 °C. Moreover, the half-inhibitory concentration (IC50) in data set [1] was over 50 µM. For the same molecule, in data set [2], the IC50 was over 50 µM. In addition, the IC50 in data set [3] is over 50 µM. For the same molecule, the IC50 in data set [4] was over 50 µM. The IC50 in data set [5] worked out at 1.89 ± 0.27 µM.

For `COc1cc([C@@H]2c3cc4c(cc3[C@@H](NC(=O)CN3CCOCC3)[C@H]3COC(=O)[C@H]23)OCO4)cc(OC)c1O` [Compound 12d, 4β-N-[2′′-(morpholino)-acetamide]-4′-demethylpodophyllotoxin], the melting point lay in the range of 109 to 111 °C. Moreover, in data set [1], the IC50 was over 50 µM. Besides, the IC50 in data set [2] is over 50 µM. Besides, the IC50 in data set [3] is over 50 µM. Further, in data set [4], the half-inhibitory concentration (IC50) was over 50 µM. The IC50 in data set [5] is over 50 µM.

`COc1cc([C@@H]2c3cc4c(cc3[C@@H](NC(=O)CN3CCOCC3)[C@H]3COC(=O)[C@H]23)OCO4)cc(OC)c1OC` [Compound 12e, 4β-N-[(2′′-morpholino)-acetamide]-podophyllotoxin] registered a melting point of 119 to 121 °C. Besides, in data set [1], the 50% inhibitory concentration (IC50) is over 50 µM. In data set [2], the half-maximal inhibitory concentration (IC50) is over 50 µM. Moreover, the IC50 in data set [3] was over 50 µM. The half-maximal inhibitory concentration (IC50) in data set [4] was over 50 µM. Further, the IC50 in data set [5] is over 50 µM.

Molecule `CCCNCC(=O)N[C@@H]1c2cc3c(cc2[C@@H](c2cc(OC)c(O)c(OC)c2)[C@H]2C(=O)OC[C@@H]21)OCO3` [Compound 12f] gave a melting point of 199 to 202 °C. In data set [1], the 50% inhibitory concentration (IC50) was 11.7 ± 0.26 µM. The concentration for half-maximal inhibition (IC50) in data set [2] was found to be 23.9 ± 1.04 µM. Also, in data set [3], the IC50 was determined as 18.6 ± 1.57 µM. In addition, the IC50 in data set [4] stood at 2.54 ± 0.34 µM. Also, in data set [5], the IC50 worked out at 2.59 ± 0.13 µM.

For the molecule `CCCCNCC(=O)N[C@@H]1c2cc3c(cc2[C@@H](c2cc(OC)c(OC)c(OC)c2)[C@H]2C(=O)OC[C@@H]21)OCO3` [Compound 12i], the melting point was in the range of 92 to 95 °C. Moreover, the IC50 in data set [1] was over 50 µM. For the same molecule, the half-inhibitory concentration (IC50) in data set [2] is over 50 µM. The IC50 in data set [3] was over 50 µM. Besides, in data set [4], the IC50 turned out to be 37.8 ± 1.01 µM. For the same molecule, the IC50 in data set [5] is over 50 µM.

As for `CCN(CC)CC(=O)N[C@@H]1c2cc3c(cc2[C@@H](c2cc(OC)c(O)c(OC)c2)[C@H]2C(=O)OC[C@@H]21)OCO3` [Compound 12k], the melting point was in the range of 106 to 108 °C. Besides, in data set [1], the IC50 is over 50 µM. Besides, the IC50 in data set [2] worked out at 45.8 ± 0.71 µM. The 50% inhibitory concentration (IC50) in data set [3] was over 50 µM. In data set [4], the 50% inhibitory concentration (IC50) was over 50 µM. Also, the IC50 in data set [5] is over 50 µM.

In turn, `COc1cc([C@@H]2c3cc4c(cc3[C@@H](NC(=O)CN(CCO)CCO)[C@H]3COC(=O)[C@H]23)OCO4)cc(OC)c1O` [Compound 12l] had a melting point of 212 to 214 °C. The half-maximal inhibitory concentration (IC50) in data set [1] was over 50 µM. The concentration for half-maximal inhibition (IC50) in data set [2] was over 50 µM. Further, the IC50 in data set [3] is over 50 µM. The IC50 in data set [4] is over 50 µM. In data set [5], the IC50 turned out to be 4.21 ± 0.17 µM.

Turning to `COc1cc([C@@H]2c3cc4c(cc3[C@@H](NC(=O)CN(CCO)CCO)[C@H]3COC(=O)[C@H]23)OCO4)cc(OC)c1OC` [Compound 12m], the melting point fell in the range of 105 to 107 °C. Moreover, the IC50 in data set [1] is over 50 µM. Also, in data set [2], the half-maximal inhibitory concentration (IC50) is 36.4 ± 0.49 µM. Further, the IC50 in data set [3] is over 50 µM. Besides, in data set [4], the 50% inhibitory concentration (IC50) is over 50 µM. In data set [5], the IC50 was over 50 µM.

The IC50 is the midpoint of a concentration-inhibition curve. Usually melting point stands for the temperature, or range, at which the solid turns liquid.
